From the supplement of paper PMC10307832

Assays:
Test in all cases: relative viability (nuclei count vs DMSO), 5 days (fraction); higher = more cells survive
Tipifarnib + Phenformin = compound: Cn1cncc1[C@@](N)(c1ccc(Cl)cc1)c1ccc2c(c1)c(-c1cccc(Cl)c1)cc(=O)n2C [Tipifarnib] + N=C(N)NC(=N)NCCc1ccccc1 [Phenformin] (partner 250 µM)
Summary of the method: (§1)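 Lung cancer cell lines were pin-tool dosed in 1536-well plates on the day after seeding, with either a lone drug or a fixed anchor-drug dose plus five library-drug doses (not always all listed) in √10 steps. Nuclei were counted on 4× images after 5 days. Relative viability is the ratio of treated-well to vehicle-well nuclei counts, with each value a median of duplicate plates.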

Tipifarnib + Olaparib = compound: Cn1cncc1[C@@](N)(c1ccc(Cl)cc1)c1ccc2c(c1)c(-c1cccc(Cl)c1)cc(=O)n2C [Tipifarnib] + O=C(c1cc(Cc2n[nH]c(=O)c3ccccc23)ccc1F)N1CCN(C(=O)C2CC2)CC1 [Olaparib] (partner 8 µM)
Summary of the method: as §1

Tipifarnib + Trametinib = compound: Cn1cncc1[C@@](N)(c1ccc(Cl)cc1)c1ccc2c(c1)c(-c1cccc(Cl)c1)cc(=O)n2C [Tipifarnib] + CC(=O)Nc1cccc(-n2c(=O)n(C3CC3)c(=O)c3c(Nc4ccc(I)cc4F)n(C)c(=O)c(C)c32)c1 [Trametinib] (partner 0.02 µM)
Summary of the method: as §1

Tipifarnib = compound: Cn1cncc1[C@@](N)(c1ccc(Cl)cc1)c1ccc2c(c1)c(-c1cccc(Cl)c1)cc(=O)n2C [Tipifarnib]
Summary of the method: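 A plate was accepted only when its control CV was below 25% and the cells had doubled at least once. Viability is defined from nuclear counts as treated wells divided by vehicle wells, with the median taken across plates. That median covers lung cancer cell lines grown in 1536-well plates, dosed by pinning at five √10-spaced library-drug concentrations, and counted in MetaXpress from 4× Hoechst images after 5 days.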

| Cell Line | relative viability (Tipifarnib + Phenformin; first compound 0.01 µM) | relative viability (Tipifarnib + Phenformin; first compound 0.03162 µM) | relative viability (Tipifarnib + Phenformin; first compound 0.1 µM) | relative viability (Tipifarnib + Phenformin; first compound 0.3162 µM) | relative viability (Tipifarnib + Phenformin; first compound 1 µM) | relative viability (Tipifarnib + Olaparib; first compound 0.01 µM) | relative viability (Tipifarnib + Olaparib; first compound 0.03162 µM) | relative viability (Tipifarnib + Olaparib; first compound 0.1 µM) | relative viability (Tipifarnib + Olaparib; first compound 0.3162 µM) | relative viability (Tipifarnib + Olaparib; first compound 1 µM) | relative viability (Tipifarnib + Trametinib; first compound 0.01 µM) | relative viability (Tipifarnib + Trametinib; first compound 0.03162 µM) | relative viability (Tipifarnib + Trametinib; first compound 0.1 µM) | relative viability (Tipifarnib + Trametinib; first compound 0.3162 µM) | relative viability (Tipifarnib + Trametinib; first compound 1 µM) | relative viability (Tipifarnib; 0.01 µM) | relative viability (Tipifarnib; 0.03162 µM) | relative viability (Tipifarnib; 0.1 µM) | relative viability (Tipifarnib; 0.3162 µM) | relative viability (Tipifarnib; 1 µM) |
| --- | --- | --- | --- | --- | --- | --- | --- | --- | --- | --- | --- | --- | --- | --- | --- | --- | --- | --- | --- | --- |
| NCI-H1755 | 0.703 | 0.594 | 0.564 | 0.577 | 0.418 | 0.869 | 0.86 | 0.875 | 0.891 | 0.898 | 0.793 | 0.732 | 0.718 | 0.723 | 0.714 | 1.02 | 1 | 0.976 | 0.955 | 0.826 |
| NCI-H1437 | 0.266 | 0.315 | 0.296 | 0.218 | 0.228 | 0.656 | 0.638 | 0.643 | 0.585 | 0.608 | 0.591 | 0.596 | 0.619 | 0.406 | 0.446 | 1.01 | 1.01 | 1.02 | 0.917 | 0.634 |
| NCI-H2085 | 0.777 | 0.442 | 0.433 | 0.385 | 0.532 | 0.823 | 0.758 | 0.613 | 0.513 | 0.7 | 0.58 | 0.603 | 0.44 | 0.408 | 0.366 | 1.04 | 0.82 | 0.708 | 0.661 | 0.723 |
| H3255 | 0.376 | 0.436 | 0.395 | 0.344 | 0.353 | 0.606 | 0.509 | 0.457 | 0.397 | 0.402 | 0.674 | 0.576 | 0.542 | 0.458 | 0.471 | 1.05 | 0.991 | 0.796 | 0.642 | 0.617 |
| NCI-H650 | 0.411 | 0.419 | 0.419 | 0.408 | 0.277 | 0.543 | 0.394 | 0.376 | 0.334 | 0.303 | 1.09 | 0.911 | 0.841 | 0.696 | 0.549 | 0.855 | 0.922 | 0.733 | 0.695 | 0.368 |
| LCLC-103H | 0.326 | 0.319 | 0.275 | 0.267 | 0.295 | 0.81 | 0.759 | 0.785 | 0.708 | 0.739 | 0.649 | 0.674 | 0.646 | 0.642 | 0.667 | 1.06 | 1.04 | 0.927 | 0.817 | 0.756 |
| LOU-NH91 | 0.652 | 0.589 | 0.688 | 0.569 | 0.414 | 0.929 | 0.904 | 0.857 | 0.802 | 0.824 | 0.825 | 0.747 | 0.73 | 0.69 | 0.723 | 0.912 | 0.841 | 0.908 | 0.771 | 0.558 |
| NCI-H1650 | 0.291 | 0.209 | 0.196 | 0.262 | 0.187 | 0.747 | 0.505 | 0.358 | 0.321 | 0.416 | 0.442 | 0.285 | 0.474 | 0.294 | 0.236 | 0.68 | 0.486 | 0.553 | 0.453 | 0.374 |
| NCI-H3122 | 0.413 | 0.419 | 0.419 | 0.356 | 0.228 | 0.685 | 0.681 | 0.482 | 0.422 | 0.415 | 0.244 | 0.215 | 0.213 | 0.211 | 0.185 | 1.02 | 0.977 | 0.949 | 0.704 | 0.44 |
| PC-3 [JPC-3] | 0.513 | 0.44 | 0.458 | 0.399 | 0.377 | 1.19 | 0.978 | 0.981 | 0.775 | 0.654 | 0.726 | 0.61 | 0.531 | 0.494 | 0.478 | 0.981 | 0.977 | 0.979 | 0.754 | 0.576 |
| NCI-H1651 | 0.322 | 0.327 | 0.319 | 0.266 | 0.235 | 0.213 | 0.194 | 0.236 | 0.22 | 0.222 | 0.827 | 0.754 | 0.781 | 0.832 | 0.802 | 1.02 | 0.992 | 1.05 | 0.992 | 0.877 |
| NCI-H2087 | 0.463 | 0.38 | 0.298 | 0.294 | 0.222 | 0.538 | 0.499 | 0.341 | 0.281 | 0.275 | 0.157 | 0.221 | 0.235 | 0.145 | 0.14 | 0.849 | 0.405 | 0.332 | 0.329 | 0.401 |
